Source: patent publication US5418232A, “Diazabicycloalkene derivatives” (Daiichi Pharmaceutical Co., Ltd., priority 1992, dated 1995)

Key:
[1] = system: spontaneously hypertensive rats; test: Antihypertensive activity in spontaneously hypertensive rats (oral, tail-cuff); assay type: in vivo, rat
Experimental: Male spontaneously hypertensive rats (16 to 20-week-old; body weight: 300-400 g) fed ab lib. were forceably given oral administration of a test compound suspended in 0.5% (w/v) carboxymethyl cellulose aqueous solution. After 1, 2, 4, 6, 8, 24, 30 or 48 hours from the administration, the systolic blood pressure was measured by a tail-cuff method described in Arzneimittel-Forschung, Vol. 18, pp. 1285-1287 (1968)).
The antihypertensive activity of the test compound was obtained as an effective dose for reducing blood pressure by 50 mmHg (ED50mmHg). Further, the time of onset of the maximum activity and the maximum increase in heart rate at a dose for reducing blood pressure by 50 to 60 mmHg were measured.
The statistical difference between a test compound and EMD57283 was analyzed by the Student's t-test.

[2] = system: spontaneously hypertensive rats; test: Effect on renal blood flow (Doppler probe); assay type: in vivo, rat; settings: for Increase in Renal Blood Flow 1 Hr after Administration: oral, dose which reduced blood pressure by about 50 mmHg; for activity in increasing the renal blood flow vs reference drug (in words): vs EMD57283
Experimental: Twenty-week-old male spontaneously hypertensive rats (body weight: 350-430 g) were anesthetized with pentobarbital (30 mg/kg, i.p.). An incision was made in the abdomen on the left side, and a Doppler probe for blood flow measurement was fitted to the left renal artery, and the code (wire lead) of the probe was passed under the back skin and taken out from the back of the neck. After 1 week from the operation, the code of the probe was connected to a Doppler blood flow meter to start measurement of the renal blood flow. After the renal blood flow reached to a steady state, a test compound was orally administered, and changes in renal blood flow were observed up to 9 hours. The test compound was used at a dose which reduced blood pressure by about 50 mmHg.

Acute toxicity = assay type: in vivo; settings: mouse, in vivo, po
male mice = test: Acute toxicity; assay type: in vivo; settings: oral 2 g/kg
Potassium channel = molecular target: T1, Potassium channel (Rattus norvegicus, UniProt Q63563); test: Potassium channel opening activity, 86Rb release from excised rat aorta segment; assay type: cell-based, Wistar rat; settings: for ECAUC0.2 (effective concentration at which the area under the peak of the 86Rb release rate reached 0.2): rat aorta segment surface-perfused with test compound for 10 minutes
T1 construct: a segment of an excised aorta of a Wistar rat; from tissue; host or cells: excised aorta segment of Wistar rat
T1 sequence (Q63563 1-1545 isoform Q63563-2): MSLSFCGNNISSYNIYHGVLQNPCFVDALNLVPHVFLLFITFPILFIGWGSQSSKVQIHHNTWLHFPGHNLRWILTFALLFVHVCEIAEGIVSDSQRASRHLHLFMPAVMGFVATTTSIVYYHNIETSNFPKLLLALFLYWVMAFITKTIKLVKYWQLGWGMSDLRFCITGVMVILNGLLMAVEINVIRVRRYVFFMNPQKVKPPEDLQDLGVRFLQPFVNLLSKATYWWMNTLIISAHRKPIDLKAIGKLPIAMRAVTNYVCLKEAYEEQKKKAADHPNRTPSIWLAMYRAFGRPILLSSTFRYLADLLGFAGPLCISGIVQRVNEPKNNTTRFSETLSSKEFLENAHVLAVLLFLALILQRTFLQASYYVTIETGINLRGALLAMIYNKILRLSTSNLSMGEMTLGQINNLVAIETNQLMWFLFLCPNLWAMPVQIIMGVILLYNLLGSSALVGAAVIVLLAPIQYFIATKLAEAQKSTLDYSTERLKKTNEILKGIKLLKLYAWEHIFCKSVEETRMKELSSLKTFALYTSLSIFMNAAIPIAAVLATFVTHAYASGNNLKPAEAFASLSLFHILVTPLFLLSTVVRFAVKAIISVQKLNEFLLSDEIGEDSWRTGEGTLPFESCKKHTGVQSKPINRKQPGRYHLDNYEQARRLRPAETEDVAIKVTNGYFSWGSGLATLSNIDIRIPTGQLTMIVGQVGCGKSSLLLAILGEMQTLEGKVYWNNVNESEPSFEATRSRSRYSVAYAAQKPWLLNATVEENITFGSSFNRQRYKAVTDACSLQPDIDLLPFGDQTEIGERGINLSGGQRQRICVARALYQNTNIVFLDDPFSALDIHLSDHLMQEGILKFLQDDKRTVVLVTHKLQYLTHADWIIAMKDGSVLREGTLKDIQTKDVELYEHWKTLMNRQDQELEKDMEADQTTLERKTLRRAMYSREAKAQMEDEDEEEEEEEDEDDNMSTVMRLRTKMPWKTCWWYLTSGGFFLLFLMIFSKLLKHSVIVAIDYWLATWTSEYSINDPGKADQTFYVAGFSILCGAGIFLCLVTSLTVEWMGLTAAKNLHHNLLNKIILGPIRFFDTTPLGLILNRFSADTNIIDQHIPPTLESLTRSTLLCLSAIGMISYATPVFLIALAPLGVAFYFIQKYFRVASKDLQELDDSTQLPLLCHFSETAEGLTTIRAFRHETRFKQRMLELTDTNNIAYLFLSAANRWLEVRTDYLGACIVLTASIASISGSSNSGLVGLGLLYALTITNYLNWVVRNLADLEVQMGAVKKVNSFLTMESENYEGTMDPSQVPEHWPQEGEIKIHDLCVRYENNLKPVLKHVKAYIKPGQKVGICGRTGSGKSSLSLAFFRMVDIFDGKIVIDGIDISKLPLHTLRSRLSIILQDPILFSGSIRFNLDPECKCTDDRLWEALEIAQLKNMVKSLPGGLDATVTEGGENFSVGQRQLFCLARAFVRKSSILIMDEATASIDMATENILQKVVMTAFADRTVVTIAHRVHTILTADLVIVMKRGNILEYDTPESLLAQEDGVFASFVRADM
T1 sequence (Q63664 whole entry partner, the tested form may be a part): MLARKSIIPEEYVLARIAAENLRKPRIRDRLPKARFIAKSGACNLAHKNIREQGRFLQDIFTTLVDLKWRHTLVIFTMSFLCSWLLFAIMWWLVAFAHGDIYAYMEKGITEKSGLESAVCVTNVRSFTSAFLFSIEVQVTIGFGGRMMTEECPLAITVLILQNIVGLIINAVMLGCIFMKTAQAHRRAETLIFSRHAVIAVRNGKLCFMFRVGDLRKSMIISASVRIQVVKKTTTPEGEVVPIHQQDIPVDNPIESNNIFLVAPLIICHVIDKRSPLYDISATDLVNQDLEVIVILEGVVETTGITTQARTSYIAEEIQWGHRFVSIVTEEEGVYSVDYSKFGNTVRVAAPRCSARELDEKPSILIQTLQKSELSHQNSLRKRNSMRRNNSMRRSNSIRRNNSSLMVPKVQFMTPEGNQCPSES

male HOS-Donryu rats = test: Antianginal activity, vasopressin-induced ST segment depression; assay type: in vivo, rat; settings: for S Value (area of ST segment depression over 5 minutes): i.v., Example 47 0.01, Nifedipine 0.03, Cromakalim 0.01 mg/kg, vasopressin 0.5 U/kg
Experimental: The test was carried out in accordance with the method of Hiramatsu, et al. (see Japanese Journal of Pharmacology, Vol. 20, p. 313 (1970)). […] A cannula for blood pressure measurement was inserted into the left femoral artery, and a cannula for drug administration was inserted into the left femoral vein. […] Then, ECG was taken every 30 seconds over a period of 5 minutes to observe depression of the ST segment. A control group was given the solvent for the drug (a solution in which 5% dimethyl sulfoxide, 5% polyethylene glycol 200 and 1% cremophor were dissolved in physiological saline).

Guinea Pig Tracheae = test: Relaxing activity in guinea pig tracheae contracted with 30 mM potassium chloride; assay type: cell-based; settings: Cavia porcellus; relaxation by 10^-8 g/ml isoproterenol as 100%; read-out: EC50 (concentration inducing 50% relaxation)
Experimental: Male guinea pigs (body weight: 400-650 g) were sacrificed by exsanguination, and tracheae were excised.
Tracheal responses were measured isometrically using a transducer "EF-601G" (manufactured by Nihon Koden Kogyo Co., Ltd.) and recorded on a multi-pen recorder "R64 GP" (manufactured by Rika Denki Co., Ltd.). The initial tension in the tracheal preparation was set up at 1 g after the preparation had equilibrated for about 60 minutes, a 30 mM potassium chloride was added to cause contraction.

[3] = system: spontaneously hypertensive rats; test: Blood pressure fall after i.v. compound with or without glibenclamide pretreatment; assay type: in vivo, rat
Experimental: 2) Twenty-two-week-old male spontaneously hypertensive rats (body weight, 350-420 g) were given an intravenous injection of 30 mg/kg of glibenclamide (Sigma Chemical Company) having an antagonistic activity against potassium channel openers or, as a control, a solvent.

[4] = dose reducing blood pressure by 50 to 60 mmHg

## CC1(C)Oc2ccc(C#N)cc2[C@@H](OC2=NN(Cc3ccccc3Cl)C(=O)C3CC23)[C@@H]1O (relative stereo) [Example 33, (3S,4R,1'R*,6'S*)-4-(3-(2-chlorobenzyl)-2-oxo-3,4-diazabicyclo[4.1.0]hept-4-en-5-yloxy)-3,4-dihydro-2,2-dimethyl-3-hydroxy-2H-1-benzopyran-6-carbonitrile]
[1]
  antihypertensive activity (in words): potent antihypertensive activity
  duration of activity (in words): long duration of activity
[1]; Rattus norvegicus, systolic blood pressure, read-out: ED50mmHg (effective dose for reducing blood pressure by 50 mmHg)
  ED (50 mmHg): 0.031 mg/kg
[1]; [4]
  Max. increase of Heat Rate: 19.4 ± 3.1%
  Time for Onset of Max. Activity: 6.6 ± 0.5 h
[2]
  Increase in Renal Blood Flow 1 Hr after Administration: 14.5 ± 4.0%
  activity in increasing the renal blood flow vs reference drug (in words): more potent activity in increasing the renal blood flow than the reference drug
Acute toxicity
  LD50 at 336 h: > 2000 mg/kg
Male mice
  safety (in words): highly safe

## CC1(C)Oc2ccc(C#N)cc2[C@@H](N2CCCC2=O)[C@@H]1O (relative stereo) [Cromakalim, 3,4trans-3,4-Dihydro-2,2-dimethyl-3-hydroxy-4-(2-oxopyrrolidin-1-yl)-2H-1benzopyran-6-carbonitrile, reference compound]
Potassium channel
  ECAUC0.2 (effective concentration at which the area under the peak of the 86Rb release rate reached 0.2): 2.8
Male HOS-Donryu rats
  S Value (area of ST segment depression over 5 minutes): 562 μV.min
Guinea Pig Tracheae
  EC50: 49 µM

## COC(=O)C1=C(C)NC(C)=C(C(=O)OC)C1c1ccccc1[N+](=O)[O-] [Nifedipine, reference compound]
Male HOS-Donryu rats
  S Value (area of ST segment depression over 5 minutes): 393 μV.min

## CC1(C)Oc2ccc(C#N)cc2[C@@H](OC2=NN(Cc3ccccc3)C(=O)C3CC23)[C@@H]1O (relative stereo) [Example 1, 3,4-trans-4-(3-Benzyl-2-oxo-3,4-diazabicyclo[4.1.0]hept-4-en-5-yloxy)-3,4-dihydro-2,2-dimethyl-3-hydroxy-2H-1-benzopyran-6-carbonitrile]
[3]; 1 Hr., 0.1 mg/kg i.v. + Glibenclamide 30 mg/kg i.v.
  Average Blood Pressure Fall: 15.9 ± 3.7 mmHg
[3]; 1 Hr., 0.1 mg/kg i.v. + solvent
  Average Blood Pressure Fall: 41.4 ± 6.1 mmHg
[3]; 2 Hrs., 0.1 mg/kg i.v. + Glibenclamide 30 mg/kg i.v.
  Average Blood Pressure Fall: 22.0 ± 5.7 mmHg
[3]; 2 Hrs., 0.1 mg/kg i.v. + solvent
  Average Blood Pressure Fall: 50.4 ± 4.4 mmHg
[3]; 3 Hrs., 0.1 mg/kg i.v. + Glibenclamide 30 mg/kg i.v.
  Average Blood Pressure Fall: 28.0 ± 5.3 mmHg
[3]; 3 Hrs., 0.1 mg/kg i.v. + solvent
  Average Blood Pressure Fall: 55.9 ± 4.3 mmHg
[3]; 4 Hrs., 0.1 mg/kg i.v. + Glibenclamide 30 mg/kg i.v.
  Average Blood Pressure Fall: 26.9 ± 5.7 mmHg
[3]; 4 Hrs., 0.1 mg/kg i.v. + solvent
  Average Blood Pressure Fall: 55.1 ± 4.7 mmHg
[3]; conclusion from Table 6, glibenclamide antagonism
  potassium channel opening activity (in words): possesses potassium channel opening activity
[2]
  Increase in Renal Blood Flow 1 Hr after Administration: 34.0 ± 6.1%
  activity in increasing the renal blood flow vs reference drug (in words): more potent activity in increasing the renal blood flow than the reference drug
Acute toxicity
  LD50 at 336 h: > 2000 mg/kg
Male mice
  safety (in words): highly safe

## CC1(C)Oc2ccc(C#N)cc2[C@@H](OC2=NNC(=O)C3CC23)[C@@H]1O (relative stereo) [Example 47, (3S,4R,1'R*,6'S*)-3,4-Dihydro-2,2-dimethyl-3-hydroxy-4-(2-oxo-3,4-diazabicyclo[4.1.0]-hept-4-en-5-yloxy)-2H-1-benzopyran-6-carbonitrile]
Potassium channel; conclusion from Table 5
  potassium channel opening activity (in words): possesses potassium channel opening activity
Potassium channel
  ECAUC0.2 (effective concentration at which the area under the peak of the 86Rb release rate reached 0.2): 0.21
[2]
  Increase in Renal Blood Flow 1 Hr after Administration: 24.3 ± 13.7%
  activity in increasing the renal blood flow vs reference drug (in words): more potent activity in increasing the renal blood flow than the reference drug
Male HOS-Donryu rats; 0.01 mg/kg i.v.
  antianginal activity (in words): significantly reduces the S value
Male HOS-Donryu rats
  S Value (area of ST segment depression over 5 minutes): 109 μV.min

## CN1N=C(O[C@@H]2c3cc(C#N)ccc3OC(C)(C)[C@H]2O)C2CC2C1=O (relative stereo) [Example 2, 3,4-trans-3,4-dihydro-2,2-dimethyl-3-hydroxy-4-(3-methyl-2-oxo-3,4-diazabicyclo[4.1.0]hept-4-en-5-yloxy)-2H-1-benzopyran-6-carbonitrile]
Acute toxicity
  LD50 at 336 h: > 2000 mg/kg
Male mice
  safety (in words): highly safe
